Literature values as cited in patent publication US20030133985A1, “Formulation of an erodible, gastric retentive oral dosage form using in vitro disintegration test data” (priority 2001, published 2003).

Settings: at 20° C.

water solubility: 1%
Compound: CC1(C)O[C@@H]2[C@@H](CO[C@@]3(COS(N)(=O)=O)OC(C)(C)O[C@@H]23)O1 [topiramate]
